Reference: paper PMC8119899, “A Single Mutation in the Outer Lipid-Facing Helix of a Pentameric Ligand-Gated Ion Channel Affects Channel Function Through a Radially-Propagating Mechanism” (Frontiers in Molecular Biosciences, 2021)
Positions count from the first letter of the chain named.

Columns and labels:
[1] = biological target: T1, 5-HT3A receptor S297A (Mus musculus, UniProt P23979, S324A); assay: FlexStation membrane potential dye, 5-HT response, S297A receptor in HEK293 cells; type: cell-based; settings: mean and SEM, n ≥ 3
T1 construct: expressed in transfected cells; host or cells: HEK293
T1 sequence (P23979 24-489 S324A): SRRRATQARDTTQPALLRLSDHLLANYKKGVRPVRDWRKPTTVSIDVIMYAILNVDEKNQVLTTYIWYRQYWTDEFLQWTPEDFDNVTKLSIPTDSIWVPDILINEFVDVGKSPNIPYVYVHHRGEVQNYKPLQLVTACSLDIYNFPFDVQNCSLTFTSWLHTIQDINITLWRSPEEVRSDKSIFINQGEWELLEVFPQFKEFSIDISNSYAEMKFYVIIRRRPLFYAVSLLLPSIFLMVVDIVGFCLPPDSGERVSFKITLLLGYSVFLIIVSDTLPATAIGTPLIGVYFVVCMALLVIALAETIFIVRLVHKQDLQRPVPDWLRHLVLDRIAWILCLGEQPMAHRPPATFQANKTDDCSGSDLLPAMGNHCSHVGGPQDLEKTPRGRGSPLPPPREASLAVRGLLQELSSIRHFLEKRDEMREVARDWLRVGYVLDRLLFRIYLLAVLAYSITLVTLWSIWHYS
Protocol: (§1) The mouse 5-HT3A cDNA (Q6J1J7) in pcDNA3.1 (for HEK cell transfection) or pGEMHE (for RNA production) was modified by QuikChange site-directed mutagenesis (Agilent Technologies) to create point mutants (verified by sequencing).
(§2) Human embryonic kidney (HEK) 293 cells were maintained at 37 °C at 5% CO2 in a humidified atmosphere, in Dulbecco's Modified Eagle's Medium/Nutrient Mix F12 (1:1) (Invitrogen, Paisley, UK) with GlutaMAX^TM and 10% fetal bovine serum (GE Healthcare) (DMEM/FBS) and passaged when confluent.
(§3) As described previously (Price and Lummis, [2005]) cells were incubated for 45 min with fluorescent membrane potential-sensitive dye (Membrane Potential Blue kit, Molecular Devices) diluted in Flex buffer (10 mM HEPES, 115 mM NaCl, 1 mM KCl, 1 mM CaCl2, 1 mM MgCl2, and 10 mM glucose, pH 7.4), and subsequently assayed at room temperature for 180 s, with readings every 2 s. […] (log of the concentration of ligand), a is the minimum response, b is the maximum response, and nH is the Hill slope.

[2] = biological target: T2, 5-HT3A receptor Y441A (Mus musculus, UniProt P23979, Y468A); design: expressed in transfected cells; method as in Mesoy et al., [2019]; settings: HEK293 cells, ref Mesoy et al., [2019]; cited from earlier work
T2 sequence (P23979 24-489 Y468A): T1 sequence (P23979 24-489 S324A) with A301S, Y445A

[3] = biological target: T3, 5-HT3A receptor K255A (Mus musculus, UniProt P23979, K282A); assay: FlexStation membrane potential dye, 5-HT response, K255A receptor in HEK293 cells; type: cell-based; design: expressed in transfected cells; host or cells: HEK293; settings: mean and SEM, n ≥ 3
T3 sequence (P23979 24-489 K282A): T1 sequence (P23979 24-489 S324A) with K259A, A301S
Protocol: as §1, §2, §3

[4] = biological target: T4, 5-HT3A receptor C290A (Mus musculus, UniProt P23979, C317A); assay: Two-electrode voltage clamp, 5-HT response, C290A receptor in Xenopus oocytes; type: cell-based; settings: mean and SEM, n ≥ 3
T4 sequence (P23979 24-489 C317A): T1 sequence (P23979 24-489 S324A) with C294A, A301S
Protocol: as §1
Xenopus laevis oocytes from EcoCyte Biosciences (Austin Texas) were injected with 100 pg cRNA (generated with the ThermoFisher mMESSAGE mMACHINE T7 transcription kit) and left in injection media [88 mM NaCl, 2.4 mM NaHCO3, 1 mM KCl, 0.82 mM MgSO4 ·7H20, 5 mM Tris-HCl, 0.33 mM Ca(NO3)2·4H2O, 0.41 mM CaCl2·2H2O, 2.51 mM sodium pyruvate, 0.12 mg/ml theophylline, 0.05 mg/ml gentamicin, pH 7.5] at 16 °C for 24 h. […] The holding potential was −60 mV, using glass microelectrodes with a resistance of approximately 1 MΩ backfilled with 3M KCl.

NCCc1c[nH]c2ccc(O)cc12 [5-HT]
nH [1]: 3.5 ± 0.8
response to application of 5-HT [2]: Neither Y441A nor D238A responded
nH [3]: 2.6± 0.1
nH [4]: 0.5 ± 0.1
